Data from PubChem BioAssay (NCI).
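Compound exposure: 48 hours, 5 concentrations, 96-well plates. TGI denotes the concentration required for complete inhibition of growth.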

Tests used:
Assay in all cases: NCI-60 cell line screen, 48 h
[1] = system: A549 NSCLC
[2] = system: NCI-H226 lung
[3] = system: M14 melanoma
[4] = system: MDA-MB-435
[5] = system: RXF 393 renal
[6] = system: T-47D breast
[7] = system: IGROV1 ovarian
[8] = system: HCC-2998 colon
[9] = system: ACHN renal
[10] = system: SF-268 CNS
[11] = system: OVCAR-3 ovarian
[12] = system: HL-60(TB) leukemia

Compound | TGI [1] [µM] | TGI [2] [µM] | TGI [3] [µM] | TGI [4] [µM] | TGI [5] [µM] | TGI [6] [µM] | TGI [7] [µM] | TGI [8] [µM] | TGI [9] [µM] | TGI [10] [µM] | TGI [11] [µM] | TGI [12] [µM]
COc1cc2c3c([nH]c2c(OC)c1OC)CCN(Cc1ccccc1)C3 | > 100 | > 100 | 30 | 35 | > 100 | 68.6 | > 100 | 34.6 | > 100 | > 100 | > 100 | > 100
CCCCNc1nc(NC2OCC(OC(C)=O)C(OC(C)=O)C2OC(C)=O)c(N=O)c(=O)n1C (configuration not stated) | > 10 | > 10 | > 10 | > 10 | > 10 | > 10 | > 10 | > 10 | > 10 | > 10 | > 10 | > 10
COc1cc(CNc2nc3ccccc3nc2C(=O)O)cc(OC)c1OC | > 100 | > 100 | – | > 100 | > 100 | > 100 | > 100 | > 100 | > 100 | > 100 | > 100 | > 100
O=c1[nH]nc(-c2ccccc2)n1O | > 100 | > 100 | > 100 | > 100 | > 100 | > 100 | > 100 | > 100 | > 100 | > 100 | > 100 | > 100
CN(C)CCc1c2c(nc3ccccc13)C(=O)c1cccnc1C2=O | 3.2 | 0.473 | 0.4 | 1.15 | 1.26 | 10.6 | 2.14 | 2.71 | 1.39 | 2.69 | 1.34 | 0.365
CCC1C(c2ccccc2O)c2cc3c(cc2OC1N1CCOCC1)OCO3 (configuration not stated) | 29.9 | 36.3 | 30.6 | 28.9 | 28.9 | 28.8 | 32.3 | 31 | 26 | 31.8 | 25.4 | 38.8
CN1CCN(c2ccc3c(c2)NCC(=O)N3)CC1 | > 100 | > 100 | > 100 | > 100 | > 100 | > 100 | > 100 | > 100 | > 100 | > 100 | > 100 | > 100
CC(C)/C(Cl)=N/OC(=O)Nc1ccc(Cl)c(Cl)c1 | 43.4 | 32.2 | 6.52 | 15.7 | 26.7 | 12.2 | 26.4 | 28.6 | 3.72 | 34.8 | 6.4 | 6.21
c1ccc(N=C2c3ccsc3C(=Nc3ccccc3)c3ccsc32)cc1 | 4.1 | 11.4 | 2.32 | 0.378 | 3.52 | 4.06 | 4 | 7.25 | 3.04 | 6.82 | 6.55 | 4.2
COC(=O)C(Cc1c[nH]c2ccccc12)N=C1Nc2ccncc2S(=O)(=O)N1c1cccc(OC(C)C)c1 (configuration not stated) | > 100 | > 100 | > 100 | > 100 | > 100 | > 100 | > 100 | > 100 | > 100 | > 100 | > 100 | 59.3
COc1ccc2c3c1O[C@H](c1ccc(O)cc1)[C@H]3[N+](C)(C)CC2 | > 100 | > 100 | > 100 | > 100 | > 100 | > 100 | > 100 | > 100 | > 100 | > 100 | > 100 | 96.1
C1CSCCSCCCSCCSCCCSCCSCCCSCCSC1 | > 100 | > 100 | > 100 | > 100 | > 100 | > 100 | > 100 | > 100 | > 100 | > 100 | > 100 | > 100
C=CCC1(C)CCCN(Cc2ccccc2)C1=O (configuration not stated) | > 10 | > 10 | > 10 | > 10 | > 10 | > 10 | 3.41 | > 10 | > 10 | > 10 | > 10 | > 10
O=C1c2c(Br)sc(Br)c2[C@@H](NC(=O)C(F)(F)F)C1Br (some centres not stated) | 32.7 | 15.1 | 6.23 | 5.27 | 5.22 | 14.7 | 10.5 | 7.8 | 6.1 | 15.2 | 9.99 | 1.59
Clc1ccc2oc(CCc3ccccc3)nc2c1 | > 100 | > 100 | > 100 | > 100 | 99.3 | > 100 | > 100 | 77.1 | > 100 | > 100 | 85.1 | > 100
c1ccc(CC2COC(c3cccs3)=N2)cc1 (configuration not stated) | > 100 | > 100 | > 100 | > 100 | > 100 | > 100 | > 100 | > 100 | > 100 | > 100 | > 100 | > 100
Nc1nc2c(C(=O)O)c3ccc([N+](=O)[O-])cc3c(=O)n2c2ccccc12 | > 100 | 53.9 | 64.2 | > 100 | 45.6 | 68.9 | 86.6 | > 100 | > 100 | 94.8 | 57 | > 100
NNc1nnc(-c2nnc(NN)o2)o1 | > 10 | > 10 | > 10 | > 10 | > 10 | > 10 | > 10 | > 10 | > 10 | > 10 | > 10 | > 10
CC(=O)O[C@H]1CC[C@@]2(C)C(=CC[C@@H]3[C@@H]2CC[C@]2(C)c4nc(Cl)ccc4C[C@@H]32)C1 | > 100 | > 100 | > 100 | > 100 | > 100 | > 100 | > 100 | > 100 | > 100 | > 100 | 69.8 | > 100
CN(CCCNC(=O)c1cc(-c2ccccc2)nc2ccccc12)CCCNC(=O)c1cc(-c2ccccc2)nc2ccccc12 | 15.3 | 10.7 | 3.17 | 3.17 | 16 | 9.92 | 13.7 | 3.36 | 7.25 | 14 | 9.14 | 4.7
O=[N+]([O-])c1ccc(C(O)(C#CCN2CCCC2)c2ccccc2)cc1 (configuration not stated) | > 100 | > 100 | 33.6 | 80.1 | > 100 | 98.9 | > 100 | 35.8 | > 100 | > 100 | > 100 | 36.5
N#Cc1nc(C#N)n(S(=O)(=O)c2ccccc2)c1NS(=O)(=O)c1ccccc1 | > 100 | > 100 | > 100 | > 100 | > 100 | > 100 | > 100 | > 100 | > 100 | > 100 | > 100 | > 100
CCOC(=O)C1CCCCN1C(=O)Cc1c[nH]c2ccccc12 (configuration not stated) | > 100 | > 100 | > 100 | > 100 | > 100 | > 100 | > 100 | > 100 | > 100 | > 100 | > 100 | 58.6
CN=C(Nc1cccc(C(F)(F)F)c1)SCc1ccc(N=C=S)cc1 | 37.5 | 45 | – | 27 | 29.3 | 29.9 | 32.8 | 29 | 28.7 | 73.3 | – | > 100
Nc1ncnc2c1ncn2[C@@H]1O[C@H](COC(c2ccccc2)(c2ccccc2)c2ccccc2)[C@@H](OC(=S)Oc2ccccc2)[C@@H]1F | 43.7 | 31.8 | 21 | 19.1 | 12.3 | 52.3 | 10.8 | 28.5 | 22.6 | 12.4 | 18.4 | 13.3
